Results as given in EP4559919A1, “TRICYCLIC-CONTAINING MACROCYCLIC COMPOUND AND USE THEREOF” (Medshine Discovery Inc., priority 2022, dated 2024).

Key:
Experiment in all cases: Cytochrome P450 isozyme inhibitory activity test (human liver microsomes)
Assay type in all cases: in vitro ADME
CYP1A2 = biological target: T1, CYP1A2 (Homo sapiens, UniProt P05177); details: human liver microsomes 0.1 mg/mL
T1 construct: Mixed human liver microsomes (HLM) purchased from Corning Inc; tissue Corning Inc; host or cells: pooled human liver microsomes
T1 sequence (P05177 1-516): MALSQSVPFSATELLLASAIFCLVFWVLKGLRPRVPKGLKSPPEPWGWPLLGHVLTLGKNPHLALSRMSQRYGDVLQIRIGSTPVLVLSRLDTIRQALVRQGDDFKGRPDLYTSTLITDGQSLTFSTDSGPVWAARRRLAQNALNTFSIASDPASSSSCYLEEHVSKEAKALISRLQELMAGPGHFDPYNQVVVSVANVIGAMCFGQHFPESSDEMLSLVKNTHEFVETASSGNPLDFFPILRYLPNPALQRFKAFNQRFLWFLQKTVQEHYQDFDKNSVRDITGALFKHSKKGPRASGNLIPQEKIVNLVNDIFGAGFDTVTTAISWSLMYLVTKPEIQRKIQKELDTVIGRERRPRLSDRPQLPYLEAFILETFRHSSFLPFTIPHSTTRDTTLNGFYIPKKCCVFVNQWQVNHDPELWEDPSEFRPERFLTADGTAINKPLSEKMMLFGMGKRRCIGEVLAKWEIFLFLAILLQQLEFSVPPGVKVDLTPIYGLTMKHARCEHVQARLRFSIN

CYP2C9 = biological target: T2, CYP2C9 (Homo sapiens, UniProt P11712); details: human liver microsomes 0.1 mg/mL; probe substrate Diclofenac
T2 construct: Mixed human liver microsomes (HLM) purchased from Corning Inc; tissue Corning Inc; host or cells: pooled human liver microsomes
T2 sequence (P11712 whole entry): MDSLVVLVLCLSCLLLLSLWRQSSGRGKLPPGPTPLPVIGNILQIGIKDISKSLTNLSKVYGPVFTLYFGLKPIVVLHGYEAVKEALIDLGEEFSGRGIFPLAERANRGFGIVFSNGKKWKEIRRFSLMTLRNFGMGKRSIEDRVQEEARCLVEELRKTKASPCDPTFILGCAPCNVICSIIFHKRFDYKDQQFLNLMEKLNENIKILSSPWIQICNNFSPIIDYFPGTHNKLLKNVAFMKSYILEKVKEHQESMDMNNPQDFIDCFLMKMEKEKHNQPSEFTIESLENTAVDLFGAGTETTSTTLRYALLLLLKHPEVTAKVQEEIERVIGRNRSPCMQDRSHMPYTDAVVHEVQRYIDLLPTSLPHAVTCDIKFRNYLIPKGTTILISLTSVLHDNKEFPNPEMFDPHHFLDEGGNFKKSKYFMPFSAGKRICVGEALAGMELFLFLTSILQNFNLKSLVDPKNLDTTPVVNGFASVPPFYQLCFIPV
Experimental: To test the inhibitory activity of the compounds of the present disclosure on different subtypes of human liver microsomal cytochrome P450 isozymes.
Mixed human liver microsomes (HLM) purchased from Corning Inc. (Steuben, New York, USA); Diclofenac as the probe substrate (10 µM); Sulfaphenazole as the positive control inhibitor; 4'-Hydroxydiclofenac as the metabolite
Preparation of test system working solution: Human liver microsomes (HLM): HLM stock solution at 20.0 mg/mL, working solution at 0.2 mg/mL, final concentration at 0.1 mg/mL; Potassium phosphate buffer: 100 mM; Cofactor working solution: Magnesium chloride, NADP (nicotinamide adenine dinucleotide phosphate), G6P (glucose-6-phosphate), G6PDH (glucose-6-phosphate dehydrogenase), and phosphate buffer or magnesium chloride, NADPH (reduced nicotinamide adenine dinucleotide phosphate) powder, and potassium phosphate buffer; prepared into cofactor working solution at appropriate ratios;
Stop solution: Isotope-labeled 4'-hydroxydiclofenac-d4 stock solution prepared in methanol, then prepared into stop solution using acetonitrile.
In the substrate-free control sample wells of the reaction plate, 100 µL of a mixture of human liver microsome and potassium phosphate buffer was added. At the zero-time point sample wells, 98 µL of a mixture of the human liver microsome and potassium phosphate buffer was added. In the no-inhibitor control (NIC), test compound, and positive control inhibitor sample wells of the reaction plate, 100 µL of a mixture of the human liver microsome and substrate was added. From the dilution plate, 2 µL of blank solvent, test compound working solution (three parallels), and positive control inhibitor working solution (two parallels) were added to the reaction plate. The reaction plate was preheated at 37.0°C for 10 minutes. […] The concentration of specific metabolites in the samples was detected using the liquid chromatography-tandem mass spectrometry (LC-MS/MS) method. […] The IC50 values were calculated using a three-parameter or four-parameter inverse log equation.

CYP2D6 = biological target: T3, CYP2D6 (Homo sapiens, UniProt P10635); details: human liver microsomes 0.1 mg/mL
T3 construct: Mixed human liver microsomes (HLM) purchased from Corning Inc; tissue Corning Inc; host or cells: pooled human liver microsomes
T3 sequence (P10635 whole entry): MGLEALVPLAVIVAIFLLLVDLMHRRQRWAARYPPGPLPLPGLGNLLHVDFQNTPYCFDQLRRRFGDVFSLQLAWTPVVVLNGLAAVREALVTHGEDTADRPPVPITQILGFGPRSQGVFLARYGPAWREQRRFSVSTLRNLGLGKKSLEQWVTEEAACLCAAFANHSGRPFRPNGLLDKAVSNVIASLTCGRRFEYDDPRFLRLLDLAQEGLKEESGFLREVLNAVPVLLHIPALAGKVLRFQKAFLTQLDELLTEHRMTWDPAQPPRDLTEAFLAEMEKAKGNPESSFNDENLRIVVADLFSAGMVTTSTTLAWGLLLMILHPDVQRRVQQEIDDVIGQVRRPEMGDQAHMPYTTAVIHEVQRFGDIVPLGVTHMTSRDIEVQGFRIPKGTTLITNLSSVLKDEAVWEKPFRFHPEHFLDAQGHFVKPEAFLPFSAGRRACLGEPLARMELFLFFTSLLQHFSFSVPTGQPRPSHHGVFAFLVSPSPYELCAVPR

CYP3A4-M = biological target: T4, CYP3A4-M (Homo sapiens, UniProt P08684); details: human liver microsomes 0.1 mg/mL
T4 construct: Mixed human liver microsomes (HLM) purchased from Corning Inc; tissue Corning Inc; host or cells: pooled human liver microsomes
T4 sequence (P08684 whole entry): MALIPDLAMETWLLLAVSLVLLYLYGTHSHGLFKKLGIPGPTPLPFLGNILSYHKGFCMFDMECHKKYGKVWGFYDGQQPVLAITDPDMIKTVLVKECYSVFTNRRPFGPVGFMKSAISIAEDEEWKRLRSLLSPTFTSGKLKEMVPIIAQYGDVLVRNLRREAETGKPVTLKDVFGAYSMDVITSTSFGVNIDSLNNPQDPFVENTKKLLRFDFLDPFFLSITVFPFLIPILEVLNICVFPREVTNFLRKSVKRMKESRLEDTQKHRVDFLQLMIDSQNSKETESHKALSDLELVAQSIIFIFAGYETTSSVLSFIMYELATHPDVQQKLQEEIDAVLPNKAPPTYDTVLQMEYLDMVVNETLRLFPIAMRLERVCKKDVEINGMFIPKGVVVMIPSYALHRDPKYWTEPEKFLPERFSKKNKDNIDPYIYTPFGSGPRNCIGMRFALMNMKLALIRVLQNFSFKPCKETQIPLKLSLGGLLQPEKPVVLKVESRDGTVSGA

Structure (SMILES): Cc1nn2cc3c4nc2c1C(=O)NC1(CC1)COc1ccc(F)cc1CN4[C@H](C(F)F)CO3 [Compound 016]
- IC50 (CYP1A2): > 50 µM
- IC50 (CYP2C9): 3.12 µM
- IC50 (CYP2D6): > 50 µM
- IC50 (CYP3A4-M): > 50 µM
